These results are taken from patent US6962911B2, “Pyrrolopyrimidinone derivatives, process of preparation and use” (SK Chemicals Co., Ltd., priority 2000, dated 2005).

Where a name gives a salt, the structure may show the parent alone. Read-outs that look alike come from different tables or passages of the source.

For one series, the target named is cGMP PDE V (Homo sapiens, UniProt O76074). Briefly: cyclic nucleotide PDE V activity, PDE SPA assay kit, inhibition study. It counts as biochemical. The procedure: The cyclic nucleotide PDE V activity was determined using PDE SPA assay kit (Amersham Pharmacia biotech, UK). Each reaction mixture (100 μL total volume) consisted of the column elute containing PDE V (10 μL), [^3H]-cGMP (5 μCi/mL), bovine serum albumin (0.5 mg/mL), and MgCl2 (5 mM) in Tris-HCl buffer (15 mM, pH 7.5). The reactions were initiated by the addition of PDE V and the samples were incubated at 30° C. for 30 min, after which the reaction was stopped by the addition of 50 μL of SPA beads. The reaction tube was then settled for 20 min and was counted on the scintillation counter (Tri-carb 1500, Packard, USA). For the inhibition study of PDE V activity, the sildenafil and test compounds were dissolved in dimethyl sulfoxide (DMSO) and was diluted with distilled water. The final concentration of DMSO was less than 0.2% (v/v).
The following table illustrate the in vitro activities for a range of the compounds of the invention as inhibitors of cGMP PDE V.

Where [1] appears, read: in vitro inhibition of cGMP PDE V, [3H]-cGMP, 30° C., 30 min, read-out: IC50.

What is called IC50 is the point on the concentration scale where inhibition reaches its midpoint. By melting point is commonly meant the temperature, or range, at which the solid turns liquid. Take `CCCc1cn(C)c2c(=O)[nH]c(-c3cc(S(=O)(=O)N4CCN(CCCl)CC4)ccc3OCC)nc12` [Example 33, 5-(5-(4-(2-chloroethyl)piperazinylsulfonyl)-2-ethoxyphenyl)-1-methyl-3-n-propyl-1,6-dihydro-7H-pyrrolo[4,3-d]pyrimidin-7-one]: the melting point was 226 °C (dec.). The midpoint of inhibition on cGMP PDE V, the IC50, lay at 2.06 nM. For the compound `CCCc1cn(C)c2c(=O)[nH]c(-c3cc(S(=O)(=O)N4CCN(CCCCl)CC4)ccc3OCC)nc12` [Example 35, 5-(5-(4-(3-chloropropyl)piperazinylsulfonyl)-2-ethoxyphenyl)-1-methyl-3-n-propyl-1,6-dihydro-7H-pyrrolo[4,3-d]pyrimidin-7-one hydrochloride], the IC50 on cGMP PDE V (setting [1]) is 0.49 nM.

Consider `CCCc1cn(C)c2c(=O)[nH]c(-c3cc(S(=O)(=O)N4CCC(CC(=O)O)CC4)ccc3OCC)nc12` [Example 106, 5-(2-ethoxy-5-(4-(hydroxycarbonylmethyl)piperidinylsulfonyl)phenyl)-1-methyl-3-n-propyl-1,6-dihydro-7H-pyrrolo[4,3-d]pyrimidin-7-one], for which the melting point is 138.5 to 139.5 °C. On cGMP PDE V (setting [1]), the IC50 turned out to be 0.27 nM. In the same order, the values of `CCCc1cn(C)c2c(=O)[nH]c(-c3cc(S(=O)(=O)N4CCN(Cc5nnn[nH]5)CC4)ccc3OCC)nc12` [Example 116] are 188 °C (dec.) and 0.28 nM.

For `CCCOc1ccc(S(=O)(=O)N2CCC(C(=O)O)CC2)cc1-c1nc2c(CCC)cn(C)c2c(=O)[nH]1` [Example 105], the melting point was in the range of 155 to 155.5 °C. Besides, on cGMP PDE V (setting [1]), the IC50 came out at 0.71 nM. As for `CCCc1cn(C)c2c(=O)[nH]c(-c3cc(S(=O)(=O)N4CCN(CCCF)CC4)ccc3OCC)nc12` [Example 19, 5-(2-ethoxy-5-(4-(3-fluoropropyl)piperazinylsulfonyl)phenyl)-1-methyl-3-n-propyl-1,6-dihydro-7H-pyrrolo[4,3-d]pyrimidin-7-one sulfuric acid], the IC50 at cGMP PDE V (setting [1]) amounted to 0.64 nM. On to `CCCOc1ccc(S(=O)(=O)N2CCN(Cc3nnn[nH]3)CC2)cc1-c1nc2c(CCC)cn(C)c2c(=O)[nH]1` [Example 117, 5-(2-n-propoxy-5-(4-(1H-tetrazol-5-ylmethyl)piperazinylsulfonyl)phenyl)-1-methyl-3-n-propyl-1,6-dihydro-7H-pyrrolo[4,3-d]pyrimidin-7-one], for which the melting point is 150 °C (dec.). Moreover, the IC50 at cGMP PDE V (setting [1]) is 0.7 nM.
